From US10239849B2 (Merck Sharp & Dohme Corp., priority 2015, dated 2019)

How the values were obtained:
[1] = target: T1, glutathione-S-transferase (GST) tagged LXRalpha LBD (ligand binding domain) (Homo sapiens, UniProt Q13133); experiment: LanthaScreen TR-FRET Liver X Receptor Coactivator Assay, LXR alpha-LBD; type: biochemical; settings: for Emax: efficacy in relation to reference dual agonist T1317, read-out: LXR alpha activity at max dose (%) (Emax); for EC50 / LXR alpha IP (nM): potency (Inflection Point) of co-activator recruitment, TR-FRET; for EC50: read-out: LXR alpha IP
T1 construct: purchased Invitrogen pv4655
T1 sequence (Q13133 209-447 limits assumed): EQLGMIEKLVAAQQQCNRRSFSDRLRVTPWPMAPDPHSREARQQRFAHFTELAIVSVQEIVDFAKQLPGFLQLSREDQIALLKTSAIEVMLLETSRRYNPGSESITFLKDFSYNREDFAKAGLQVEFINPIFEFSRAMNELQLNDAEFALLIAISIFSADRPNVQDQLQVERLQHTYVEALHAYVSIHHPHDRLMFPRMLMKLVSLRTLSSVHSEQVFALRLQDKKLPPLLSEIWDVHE
Outline: (§1)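 LXR alpha- or beta-LBD was added to test compounds, then a mix of fluorescein-labelled coactivator peptide and terbium anti-GST antibody. After room-temperature incubation, TR-FRET was read on a filter-based reader.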

[2] = target: T2, glutathione-S-transferase (GST) tagged LXRbeta LBD (ligand binding domain) (Homo sapiens, UniProt P55055); experiment: LanthaScreen TR-FRET Liver X Receptor Coactivator Assay, LXR beta-LBD; type: biochemical; settings: for Emax: efficacy in relation to reference dual agonist T1317, read-out: LXR beta activity at max dose (%) (Emax); for EC50: potency (Inflection Point) of co-activator recruitment, TR-FRET, read-out: LXR beta IP
T2 construct: purchased Invitrogen pv4658.pps
T2 sequence (P55055 222-460 limits assumed): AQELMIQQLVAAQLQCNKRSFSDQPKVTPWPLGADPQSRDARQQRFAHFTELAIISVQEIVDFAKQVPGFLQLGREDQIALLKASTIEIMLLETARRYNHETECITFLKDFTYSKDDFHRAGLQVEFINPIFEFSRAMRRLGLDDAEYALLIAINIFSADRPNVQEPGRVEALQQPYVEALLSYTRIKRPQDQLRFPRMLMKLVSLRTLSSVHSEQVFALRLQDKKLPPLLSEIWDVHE
Outline: as §1

Emax [1] [%]	EC50 [1] [µM]	Emax [2] [%]	EC50 [2] [nM]	LXR alpha IP (nM) [1]	SMILES
79	23.5	75	68	–	CN(C)C(=O)c1ccc(-c2cnc(N3CCN(C(=O)OCc4cccc(Cl)c4)CC3)c(C#N)c2)cc1Cl [Example 3-10, 3-chlorobenzyl 4-{5-[3-chloro-4-(dimethylcarbamoyl)phenyl]-3-cyanopyridin-2-yl}piperazine-1-carboxylate]
17	–	76	705	No IP	CN(CCc1ccncc1)C(=O)c1ccc(-c2cnc(N3CCN(C(=O)OC(C)(C)C)CC3)c(C#N)c2)cc1Cl [Example 5-27, tert-butyl 4-(5-{3-chloro-4-[methyl(2-pyridin-4-ylethyl)carbamoyl]phenyl}-3-cyanopyridin-2-yl)piperazine-1-carboxylate]
27	8.53	67	1860	–	CN(CC(O)c1ccc(O)cc1)C(=O)c1ccc(-c2cnc(N3CCN(C(=O)OC(C)(C)C)CC3)c(C#N)c2)cc1Cl (stereo not shown) [Example 5-31, tert-butyl 4-[5-(3-chloro-4-{[2-hydroxy-2-(4-hydroxyphenyl)ethyl](methyl)carbamoyl}phenyl)-3-cyanopyridin-2-yl]piperazine-1-carboxylate]
50	8.05	108	57	–	CN(C)C(=O)c1ccc(-c2cnc(N3CCN(C(=O)C4Cc5ccccc54)CC3)c(C#N)c2)cc1Cl (stereo not shown) [Example 2-13, 4-{6-[4-(bicyclo[4.2.0]octa-1,3,5-trien-7-ylcarbonyl)piperazin-1-yl]-5-cyanopyridin-3-yl}-2-chloro-N,N-dimethylbenzamide]
58	13	94	242	–	CN(C)C(=O)c1ccc(-c2cnc(N3CCN(C(=O)[C@](C)(O)C(F)(F)F)CC3)c(C#N)c2)cc1Cl [Example 2-16, 2-chloro-4-(5-cyano-6-{4-[(2S)-3,3,3-trifluoro-2-hydroxy-2-methylpropanoyl]piperazin-1-yl}pyridin-3-yl)-N,N-dimethylbenzamide]
40	0.954	70	6	–	CN(C)C(=O)c1ccc(-c2cnc(N3CCN(C(=O)OC(C)(C)C)C(c4ccccc4)C3)c(C#N)c2)cc1Cl (stereo not shown) [Example 8-12, tert-butyl 4-{5-[3-chloro-4-(dimethylcarbamoyl)phenyl]-3-cyanopyridin-2-yl}-2-phenylpiperazine-1-carboxylate]
30	27.9	77	1060	–	CN(C)C(=O)c1ccc(-c2cnc(N3CCN(C(=O)[C@H](O)C(F)(F)F)CC3)c(C#N)c2)cc1Cl [Example 2-11, 2-chloro-4-(5-cyano-6-{4-[(2S)-3,3,3-trifluoro-2-hydroxypropanoyl]piperazin-1-yl}pyridin-3-yl)-N,N-dimethylbenzamide]
58	13.1	101	171	–	CN(C)C(=O)c1ccc(-c2cnc(N3CCN(C(=O)[C@@](C)(O)C(F)(F)F)CC3)c(C#N)c2)cc1Cl [Example 2-15, 2-chloro-4-(5-cyano-6-{4-[(2R)-3,3,3-trifluoro-2-hydroxy-2-methylpropanoyl]piperazin-1-yl}pyridin-3-yl)-N,N-dimethylbenzamide]
43	8.78	77	435	–	CN(C)NC(=O)c1ccc(-c2cnc(N3CCN(C(=O)OC(C)(C)C)CC3)c(C#N)c2)cc1Cl [Example 5-6, tert-butyl 4-(5-{3-chloro-4-[(2,2-dimethylhydrazino)carbonyl]phenyl}-3-cyanopyridin-2-yl)piperazine-1-carboxylate]
57	4.23	93	15	–	CN(C)C(=O)c1ccc(-c2cnc(N3CCN(C(=O)C4(c5ccccc5F)CCCC4)CC3)c(C#N)c2)cc1Cl [Example 2-29, 2-chloro-4-[5-cyano-6-(4-{[1-(2-fluorophenyl)cyclopentyl]carbonyl}piperazin-1-yl)pyridin-3-yl]-N,N-dimethylbenzamide]
61	0.617	102	1	–	CN(C)C(=O)c1ccc(-c2cnc(N3CCN(C(=O)[C@](O)(c4ccccc4)C(F)(F)F)CC3)c(C#N)c2)cc1Cl [Example 2-2, 2-chloro-4-(5-cyano-6-{4-[(2R)-3,3,3-trifluoro-2-hydroxy-2-phenylpropanoyl]piperazin-1-yl}pyridin-3-yl)-N,N-dimethylbenzamide]
71	3.71	84	164	–	Cc1nc(CCN(C)C(=O)c2ccc(-c3cnc(N4CCN(C(=O)OC(C)(C)C)CC4)c(C#N)c3)cc2Cl)no1 [Example 5-28, tert-butyl 4-[5-(3-chloro-4-{methyl[2-(5-methyl-1,2,4-oxadiazol-3-yl)ethyl]carbamoyl}phenyl)-3-cyanopyridin-2-yl]piperazine-1-carboxylate]
50	6.61	92	21	–	CN(C)C(=O)c1ccc(-c2cnc(N3CCN(C(=O)OCc4ccccc4F)CC3)c(C#N)c2)cc1Cl [Example 3-6, 2-fluorobenzyl 4-{5-[3-chloro-4-(dimethylcarbamoyl)phenyl]-3-cyanopyridin-2-yl}piperazine-1-carboxylate]
30	10.8	73	1660	–	CN(C)C(=O)c1ccc(-c2cnc(N3CCN(C(=O)OC(C)(C)C)CC3)c(C#N)c2)cc1C(F)(F)F [Example 8-9, tert-butyl 4-{3-cyano-5-[4-(dimethylcarbamoyl)-3-(trifluoromethyl)phenyl]pyridin-2-yl}piperazine-1-carboxylate]
19	–	41	1560	No IP	CC(C)COC(=O)N1CCN(c2ncc(-c3ccc(C(=O)N(C)C)c(Cl)c3)cc2C#N)CC1 [Example 3-2, 2-methylpropyl 4-{5-[3-chloro-4-(dimethylcarbamoyl)phenyl]-3-cyanopyridin-2-yl}piperazine-1-carboxylate]
27	3.29	115	162	–	CN(C)C(=O)c1ccc(-c2cnc(N3CCN(C(=O)C(O)(C4CCCCC4)C(F)(F)F)CC3)c(C#N)c2)cc1Cl (stereo not shown) [Example 2-33, 2-chloro-4-{5-cyano-6-[4-(2-cyclohexyl-3,3,3-trifluoro-2-hydroxypropanoyl)piperazin-1-yl]pyridin-3-yl}-N,N-dimethylbenzamide]
53	0.186	73	3	–	CN(C)C(=O)c1c(Cl)cc(-c2cnc(N3CCN(C(=O)[C@](O)(c4ccccc4)C(F)(F)F)CC3)c(C#N)c2)cc1Cl [Example 7-1, 2,6-dichloro-4-(5-cyano-6-{4-[(2R)-3,3,3-trifluoro-2-hydroxy-2-phenylpropanoyl]piperazin-1-yl}pyridin-3-yl)-N,N-dimethylbenzamide]
68	1.26	80	40	–	CN(CCO)C(=O)c1ccc(-c2cnc(N3CCN(C(=O)OC(C)(C)C)CC3)c(C#N)c2)cc1Cl [Example 5-1, tert-butyl-4-(5-{3-chloro-4-[(2-hydroxyethyl)(methyl)carbamoyl]phenyl}-3-cyanopyridin-2-yl)piperazine-1-carboxylate]
41	8.59	85	36	–	COc1ccccc1COC(=O)N1CCN(c2ncc(-c3ccc(C(=O)N(C)C)c(Cl)c3)cc2C#N)CC1 [Example 3-7, 2-methoxybenzyl 4-{5-[3-chloro-4-(dimethylcarbamoyl)phenyl]-3-cyanopyridin-2-yl}piperazine-1-carboxylate]
20	16.9	93	1270	–	CN(C)C(=O)c1ccc(-c2ccc(N3CCN(C(=O)c4c(F)cccc4Cl)CC3)cc2)cc1Cl [Example 4-19, 3-chloro-4′-{4-[(2-chloro-6-fluorophenyl)carbonyl]piperazin-1-yl}-N,N-dimethylbiphenyl-4-carboxamide]
42	29.6	104	463	–	CN(C)C(=O)c1ccc(-c2cnc(N3CCN(C(=O)Cc4cn5ccsc5n4)CC3)c(C#N)c2)cc1Cl [Example 2-24, 2-chloro-4-{5-cyano-6-[4-(imidazo[2,1-b][1,3]thiazol-6-ylacetyl)piperazin-1-yl]pyridin-3-yl}-N,N-dimethylbenzamide]
34	12.1	89	17	–	CN(C)C(=O)c1ccc(-c2cnc(N3CCN(S(=O)(=O)c4ccccc4F)CC3)c(C#N)c2)cc1Cl [Example 1-8, 2-chloro-4-(5-cyano-6-{4-[(2-fluorophenyl)sulfonyl]piperazin-1-yl}pyridin-3-yl)-N,N-dimethylbenzamide]
